Key:
Format in all cases: in vivo
[1] = test system: Matricaria inodora; experiment: Post-emergence herbicidal action against MATIN; settings: 20 g a.i./ha
Experimental: (§1) Post-Emergence Herbicidal Action Against Harmful Plants and Crop Plant Compatibility Seeds of monocotyledonous and dicotyledonous weeds and crop plants are placed in sandy loam in plastic or wood-fibre pots, covered with soil and cultivated in a greenhouse under controlled growth conditions. 2 to 3 weeks after sowing, the test plants are treated at the one-leaf stage. The compounds of the invention, formulated in the form of wettable powders (WP) or as emulsion concentrates (EC), are then sprayed onto the green parts of the plants as aqueous suspension or emulsion with addition of 0.5% additive at a water application rate of 600 l/ha (converted). After the test plants have been kept in the greenhouse under optimum growth conditions for about 3 weeks, the activity of the preparations is rated visually in comparison to untreated controls. For example, 100% activity=the plants have died, 0% activity=like control plants. [table]

[2] = test system: Echinochloa crus-galli; experiment: Post-emergence herbicidal action against ECHCG; settings: 20 g a.i./ha, visual rating about 3 weeks after treatment
Experimental: as §1

[3] = test system: Pharbitis purpurea; experiment: Post-emergence herbicidal action against PHBPU; settings: 20 g a.i./ha
Experimental: as §1

[4] = test system: Alopecurus myosuroides; experiment: Post-emergence herbicidal action against ALOMY; settings: 20 g a.i./ha, visual rating about 3 weeks after treatment
Experimental: as §1

[5] = test system: Abutilon theophrasti; experiment: Post-emergence herbicidal action against ABUTH; settings: 20 g a.i./ha, visual rating about 3 weeks after treatment
Experimental: as §1

[6] = test system: Lolium rigidum; experiment: Post-emergence herbicidal action against LOLRI; settings: visual rating about 3 weeks after treatment
Experimental: as §1

[7] = test system: Setaria viridis; experiment: Post-emergence herbicidal action against SETVI; settings: visual rating about 3 weeks after treatment
Experimental: as §1

[8] = test system: Veronica persica; experiment: Post-emergence herbicidal action against VERPE
Experimental: as §1

[9] = test system: Avena fatua; experiment: Post-emergence herbicidal action against AVEFA; settings: visual rating about 3 weeks after treatment
Experimental: as §1

[10] = test system: Amaranthus retroflexus; experiment: Post-emergence herbicidal action against AMARE; settings: 20 g a.i./ha
Experimental: as §1

[11] = test system: DIGSA; experiment: Post-emergence herbicidal action against DIGSA; settings: visual rating about 3 weeks after treatment
Experimental: as §1, with “plants.” for “plants. [table]”

[12] = test system: Polygonum convolvulus; experiment: Post-emergence herbicidal action against POLCO; settings: 20 g a.i./ha
Experimental: as §1

[13] = test system: Hordeum murinum; experiment: Post-emergence herbicidal action against HORMU
Experimental: as §1

[14] = test system: Stellaria media; experiment: Post-emergence herbicidal action against STEME; settings: 80 g a.i./ha
Experimental: as §1

Compound | Herbicidal action against [%] MATIN [1] [%] | Herbicidal action against [%] ECHCG [2] [%] | Herbicidal action against [%] PHBPU [3] [%] | Herbicidal action against [%] ALOMY [4] [%] | Herbicidal action against [%] ABUTH [5] [%] | Herbicidal action against [%] LOLRI ([6]; 20 g a.i./ha) [%] | Herbicidal action against [%] SETVI ([7]; 20 g a.i./ha) [%] | Herbicidal action against [%] VERPE ([8]; 20 g a.i./ha) [%] | Herbicidal action against [%] AVEFA ([9]; 20 g a.i./ha) [%] | Herbicidal action against [%] AMARE [10] [%] | Herbicidal action against [%] DIGSA ([11]; 20 g a.i./ha) [%] | Herbicidal action against [%] POLCO [12] [%] | Herbicidal action against [%] HORMU ([13]; 20 g a.i./ha) [%] | Herbicidal action against [%] HORMU ([13]; 80 g a.i./ha) [%] | Herbicidal action against [%] STEME [14] [%] | Herbicidal action against [%] LOLRI ([6]; 80 g a.i./ha) [%] | Herbicidal action against [%] SETVI ([7]; 80 g a.i./ha) [%] | Herbicidal action against [%] VERPE ([8]; 80 g a.i./ha) [%] | Herbicidal action against [%] AVEFA ([9]; 80 g a.i./ha) [%] | Herbicidal action against [%] DIGSA ([11]; 80 g a.i./ha) [%]
COC1(C(=O)NC2C=CC(C(=O)OCCSC)C2)CC(c2cc(F)cc(F)c2)=NO1 (centres unmarked) [Example I-20] | 80 | 90 | 80 | 90 | 80 | 90 | 80 | 80 | 90 | 80 | 80 |  |  |  |  |  |  |  |  | 
CCSCCOC(=O)C1C=CC(NC(=O)C2(OC)CC(c3cc(F)cc(F)c3)=NO2)C1 (centres unmarked) [Example I-22] |  | 80 | 80 | 90 | 80 | 90 | 90 | 90 | 90 | 80 | 90 |  |  |  |  |  |  |  |  | 
COC1(C(=O)NC2C=CC(C(=O)OCCSC(C)C)C2)CC(c2cc(F)cc(F)c2)=NO1 (centres unmarked) [Example I-25] |  | 80 | 80 | 90 | 80 | 90 | 90 | 80 | 90 | 80 | 90 | 80 |  |  |  |  |  |  |  | 
C=CC1(C(=O)NC2C=CC(C(=O)OCCSC)C2)CC(c2cc(F)cc(C#N)c2)=NO1 (centres unmarked) [Example I-39] |  | 90 | 80 | 90 | 80 | 90 | 90 | 90 | 90 | 80 | 90 | 80 |  |  |  |  |  |  |  | 
CSCCOC(=O)C1C=CC(NC(=O)C2(C)CC(c3cccc(C#N)c3)=NO2)C1 (centres unmarked) [Example I-41] |  |  |  | 80 |  |  | 80 |  | 90 |  |  |  | 80 | 90 | 80 | 80 | 80 | 80 | 100 | 80
C=CC1(C(=O)NC2C=CC(C(=O)OCCSC)C2)CC(c2cc(Cl)cc(Cl)c2)=NO1 (centres unmarked) [Example I-55] | 80 |  | 80 | 100 | 80 |  | 90 | 90 | 80 | 90 | 80 | 80 |  |  |  |  |  |  |  | 
CSCCOC(=O)C1C=CC(NC(=O)C2(CCl)CC(c3cc(C)cc(F)c3)=NO2)C1 (centres unmarked) [Example I-57] | 80 |  |  | 80 |  |  |  |  |  |  |  |  |  |  |  |  |  |  |  | 
CSCCOC(=O)C1C=CC(NC(=O)C2(CF)CC(c3cc(F)cc(C#N)c3)=NO2)C1 (centres unmarked) [Example I-65] | 80 | 80 |  | 90 | 80 | 80 |  | 80 | 80 | 80 |  | 90 |  |  |  |  |  |  |  | 
CSCCOC(=O)C1C=CC(NC(=O)C2(C)CC(c3cc(C)cc(Cl)c3)=NO2)C1 (centres unmarked) [Example I-75] |  | 90 | 80 | 90 | 80 |  | 90 | 80 | 80 |  | 90 |  |  |  |  |  |  |  |  | 
